Patent publication US20220106275A1, “RADIOLABELED COMPOUNDS AND USES THEREOF” (The Trustees of Columbia University in the City of New York, priority 2019, published 2022)
One block for each compound: values may come before it.

Legend:
[1] = test system: COX-2-positive BxPC3 cells; assay: Cell uptake of [18F]FMTP in COX-2-positive BxPC3 cells, with blocking; format: cell-based, human
COX-2 [2] = conditions: cited from earlier work
COX-2 [3] = conditions: baboon brain; cited from earlier work
COX-2 [4] = molecular target: T1, COX-2 (Homo sapiens, UniProt P35354); conditions: cited from earlier work
T1 sequence (P35354 18-604): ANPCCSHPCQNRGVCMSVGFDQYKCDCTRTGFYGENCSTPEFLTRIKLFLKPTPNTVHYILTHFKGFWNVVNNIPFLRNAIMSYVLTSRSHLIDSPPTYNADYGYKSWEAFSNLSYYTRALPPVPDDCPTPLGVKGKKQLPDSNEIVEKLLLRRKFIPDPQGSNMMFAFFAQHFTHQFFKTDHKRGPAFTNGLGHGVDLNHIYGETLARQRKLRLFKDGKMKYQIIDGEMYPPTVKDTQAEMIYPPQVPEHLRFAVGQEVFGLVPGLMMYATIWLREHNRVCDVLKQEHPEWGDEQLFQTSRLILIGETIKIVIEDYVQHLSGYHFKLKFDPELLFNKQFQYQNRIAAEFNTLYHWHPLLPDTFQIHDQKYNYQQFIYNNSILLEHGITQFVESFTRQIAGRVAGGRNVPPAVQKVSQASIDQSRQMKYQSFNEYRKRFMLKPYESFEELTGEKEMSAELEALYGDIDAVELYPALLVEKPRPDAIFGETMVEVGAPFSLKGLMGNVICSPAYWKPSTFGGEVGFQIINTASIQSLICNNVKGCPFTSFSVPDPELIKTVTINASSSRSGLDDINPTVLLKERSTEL

COX-2 [5] = molecular target: T2, COX-2 (Mus musculus, UniProt Q05769); assay: MicroPET imaging of [18F]FMTP in LPS-induced neuroinflammation mice vs PBS-treated mice; format: in vivo; conditions: 24 hours after intracranial 5 μg LPS (FIG. 5)
T2 construct: from tissue; host or cells: brain of living male white mice, LPS- or PBS-injected
T2 sequence (Q05769 18-604): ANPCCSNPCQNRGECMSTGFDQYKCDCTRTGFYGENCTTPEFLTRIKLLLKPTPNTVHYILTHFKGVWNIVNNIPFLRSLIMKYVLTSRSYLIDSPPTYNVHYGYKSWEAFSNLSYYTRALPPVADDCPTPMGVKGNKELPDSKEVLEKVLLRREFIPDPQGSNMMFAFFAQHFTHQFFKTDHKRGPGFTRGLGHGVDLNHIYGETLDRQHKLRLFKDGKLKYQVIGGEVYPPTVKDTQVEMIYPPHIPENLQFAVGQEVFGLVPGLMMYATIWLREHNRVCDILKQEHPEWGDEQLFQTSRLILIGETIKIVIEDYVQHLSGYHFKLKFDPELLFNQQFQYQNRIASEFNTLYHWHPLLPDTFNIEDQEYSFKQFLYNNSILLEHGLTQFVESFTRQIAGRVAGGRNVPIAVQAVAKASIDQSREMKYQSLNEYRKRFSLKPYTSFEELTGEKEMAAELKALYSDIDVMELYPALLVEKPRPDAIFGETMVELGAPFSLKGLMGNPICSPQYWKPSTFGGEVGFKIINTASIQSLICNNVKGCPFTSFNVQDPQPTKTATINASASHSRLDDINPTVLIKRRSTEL
Experimental: (§1) The radiochemical synthesis of [^18F]FMTP and [^18F]FMPP were optimized using a chlorine-to-fluorine displacement method, by reacting ^18F-fluoride/K222/K2CO3 with the corresponding chlorine precursor molecules. […] Dynamic microPET image acquisition was performed in anesthetized nude mice, LPS-induced neuroinflammation mice, and PBS-administered control mice using […].
Animals (male white mice) were anesthetized with isoflurane (l %-2% isoflurane in 100% oxygen) using a nose cone, and a 29-gauge needle connected to a catheter was placed into the lateral tail vein. For neuroinflammation, mice were stereotactically injected with 5 μg of LPS or PBS (controls) in the brain and imaging experiments conducted 24 hours later. […] The standardized uptake values (“SUVs”) were estimated using a calibration factor calculated from the phantom study and time activity curves (“TACs”) were derived from VOIs in the series of reconstructed images.
FIGS. 3A-3D show the summed early frames (0-10 minute) and total frames (0-40 minute) of microPET images. […] TACs also indicated an initial rapid influx of radioactivity followed by rapid washout (FIG. 4). […] Highest radioactivity outside the heart was found in liver, and the delay to peak at 5-10 minutes was probably due to the accumulation of radioactive metabolite(s). […]

[6] = Dynamic microPET imaging of [18F]FMTP in normal mice; format: in vivo
Experimental: as §1
Animals (male white mice) were anesthetized with isoflurane (l %-2% isoflurane in 100% oxygen) using a nose cone, and a 29-gauge needle connected to a catheter was placed into the lateral tail vein. For neuroinflammation, mice were stereotactically injected with 5 μg of LPS or PBS (controls) in the brain and imaging experiments conducted 24 hours later. The animal was placed in prone position on the platform of the scanner and moved into the center of the field of view guided by laser beam calibration. Immediately after scan start, [^18F]FMTP (˜2.5 MBq […] in 20% ethanol-saline solution) was injected through the tail-vein catheter manually. The error caused by the injector and catheter was corrected by subtracting the remaining dose. 40-minute dynamic imaging was acquired on a microPET scanner (Siemens Inveon). The acquired list-mode data were reconstructed with 3D ordered subset expectation maximization (OSEM) algorithm using the software of Siemens Inveon Acquisition Workplace with a framing protocol of 2×30 seconds, 4×60 seconds, 3×120 seconds, 3×180 seconds, and 4×300 seconds. Using PMOD software (version 4.0, Switzerland), three-dimensional ellipsoid volume of interests (“VOIs”) ranging from 2-to-6 mm were placed manually at the center of the brain, heart (blood-pool), liver, proximal humerus (bone), and posterior cervical muscle. The standardized uptake values (“SUVs”) were estimated using a calibration factor calculated from the phantom study and time activity curves (“TACs”) were derived from VOIs in the series of reconstructed images.
FIGS. 3A-3D show the summed early frames (0-10 minute) and total frames (0-40 minute) of microPET images. Crosses in FIGS. 3A-3D represent the region with brain. […] TACs also indicated an initial rapid influx of radioactivity followed by rapid washout (FIG. 4). The uptake of [^18F]FMTP peaked around 1 minute in heart and brain, and then decreased rapidly. The absence of retention of [^18F]FMTP activity in these organs was predicted due to low COX-2 expression in normal mouse brain. Highest radioactivity outside the heart was found in liver, and the delay to peak at 5-10 minutes was probably due to the accumulation of radioactive metabolite(s). […] The binding of [^18F]FMTP in LPS-induced neuroinflammation in mice was studied in comparison to vehicle (PBS)-treated-mice. Intracranial injection of LPS in mice is known to generate COX-2 induction and neuroinflammation after around 24 hours. Therefore, PET imaging of LPS treated mice was performed after 24 hours with [^18F]FMTP, and an approximately 2-fold increase of tracer binding was found in brain compared with PBS-treated mice (FIG. 5). […] MicroPET data correlated with autoradiography performed in brain sections of microPET imaged animals using [^18F]FMTP.

[7] = test system: COX-2-negative PANC-1 cells; assay: Cell uptake of [18F]FMTP in COX-2-negative PANC-1 cells, with blocking; format: cell-based, human
Experimental: as §1
BxPC3 and PANC-1 human pancreas carcinoma cell lines were plated on a 24-well plate at 2×10^5 cells/well. After 48 hours, [^18F]FMTP was added (2.0 μCi/mL) to the cell medium for 30 minutes. […] After incubation with [^18F]FMTP, cells were washed 4 times with cold PBS, lysed with 0.1 N NaOH, and counted in a gamma counter (Hidex AMG, LabLogic, Tampa, Fla.).
Proof-of-concept and selectivity of [^18F]FMTP binding to COX-2 was examined by evaluating the tracer uptake in COX-2-positive BxPC3 and a control COX-2-negative PANC1 human pancreatic carcinoma cell lines. FIG. 2 illustrates a >2-fold uptake of [^18F]FMTP in BxPC3 cells compared with PANC1 cells. Values shown in FIG. 2 are the mean±standard deviation (“SD”) from four independent experiments.

xenografts = conditions: cited from earlier work

SMILES: CS(=O)(=O)c1ccc(-c2nc(F)cc(NCc3nccs3)n2)cc1 [FMTP]
blocking of [18F]FMTP binding in BxPC3 cells ([1]; blocker 5 μM added 30 minutes before [18F]FMTP): substantially blocked

SMILES: COc1cc(NCc2cccs2)nc(-c2ccc(S(C)(=O)=O)cc2)n1 [MC1]
specific binding in CNS and periphery organs (COX-2 [2]; cold (non-radiolabeled) MC1): no specific binding

SMILES: CS(=O)(=O)c1ccc(-c2nc(NCc3cccs3)cc(O[11CH3])n2)cc1 [[^11C]MC1, [^11C]-6-methoxy-2-(4-(methylsulfonyl)phenyl)-N-(thiophen-2-ylmethyl)pyrimidin-4-amine]
binding to COX-2 in neuroinflammation (COX-2 [2]; animal models of neuroinflammation): increased binding to COX-2 | detection of constitutive or low level COX-2 in brain (COX-2 [2]; conditions without inflammation): failed to detect

SMILES: CS(=O)(=O)c1ccc(-c2noc(C(F)(F)F)c2-c2ccccc2)cc1 [[^11C]TMI, [^11C]-3-(4-methylsulfonylphenyl)-4-phenyl-5-trifluoromethyl isoxazole]
blocking of constitutive COX-2 level in brain (COX-2 [3]): partial blocking

SMILES: CS(=O)(=O)c1ccc(-c2nc(F)cc(NCc3nccs3)n2)cc1 [[^18F]FMTP, [^18F]-6-fluoro-2-(4-(methylsulfonyl)phenyl)-N-(thiazol-2-ylmethyl)pyrimidin-4-amine]
IC50 (COX-2 [4]): 2.5 nM

increase of tracer binding in brain of LPS-treated compared with PBS-treated mice (COX-2 [5]): approximately 2 fold | washout of activity from brain ([6]; microPET, 0-40 minute): fast washout | BBB penetration ([6]; microPET, tail-vein injection): penetrated the BBB | time of peak uptake in heart and brain ([6]; time activity curves (FIG. 4)): around 1 minute | time of peak radioactivity in liver ([6]; time activity curves, delay ascribed to radioactive metabolite(s)): 5 to 10 min
SMILES: CS(=O)(=O)c1ccc(-c2nc([18F])cc(NCc3nccs3)n2)cc1 [[^18F]FMTP, [^18F]-6-fluoro-2-(4-(methylsulfonyl)phenyl)-N-(thiazol-2-ylmethyl)pyrimidin-4-amine]
uptake of [18F]FMTP in BxPC3 cells compared with PANC1 cells ([1]; 2.0 μCi/mL, 30 minutes, mean of four independent experiments (FIG. 2)): > 2 fold | uptake in spine and skeleton (de[18F]fluorination) ([6]; microPET): did not show uptake in spine and skeleton | binding to PANC1 cells ([7]; 2.0 μCi/mL, 30 minutes): negligible binding | specific binding in PANC1 cells with FMTP or celecoxib block ([7]; blockers 5 μM): no specific binding

SMILES: CS(=O)(=O)c1ccc(-c2cc(C(F)(F)F)nc(NCc3ccc([18F])cc3)n2)cc1 [[^18F]Pyricoxib]
binding in xenografts in vivo (xenografts): only modest binding | uptake in brain (xenografts; in vivo): did not show significant uptake in brain
